According to ChEMBL document CHEMBL1201862, “PubChem BioAssay data set” (2004):
The source made the active and inactive calls.

Legend:
Vero = experiment: cytotoxicity of synthesized analogs in Vero cells, SAR follow-up, cytotoxicity control for West Nile virus antiviral project, cell-based, set II (AID 2402); assay type: functional; conditions: Chlorocebus sabaeus
[1] = A Cell Based Assay for the Identification of Probe candidate Compounds with Anti- Venezuelan Equine Encephalitis virus. [Related pubchem assays: 2409, 2419, 1621, 2238, 2405, 2024, 2065, 2402, 2414, 1635, 1650, 2244 ]; assay type: functional
Insulin-degrading enzyme = target: T1, Insulin-degrading enzyme (Homo sapiens, UniProt P14735); experiment: Dose Response: Fluorescence polarization-based cell-based high throughput dose response assay for inhibitors of insulin-degrading enzyme (IDE). [Related pubchem assays: 434962 (Primary screen (IDE inhibitors in singlicate)), 449730 (Counterscreen (Cytotoxicity in triplicate)), 435028 (Confirmation (IDE inhibitors in triplicate)), 434984 (Summary …; assay type: functional
T1 sequence (P14735 whole entry): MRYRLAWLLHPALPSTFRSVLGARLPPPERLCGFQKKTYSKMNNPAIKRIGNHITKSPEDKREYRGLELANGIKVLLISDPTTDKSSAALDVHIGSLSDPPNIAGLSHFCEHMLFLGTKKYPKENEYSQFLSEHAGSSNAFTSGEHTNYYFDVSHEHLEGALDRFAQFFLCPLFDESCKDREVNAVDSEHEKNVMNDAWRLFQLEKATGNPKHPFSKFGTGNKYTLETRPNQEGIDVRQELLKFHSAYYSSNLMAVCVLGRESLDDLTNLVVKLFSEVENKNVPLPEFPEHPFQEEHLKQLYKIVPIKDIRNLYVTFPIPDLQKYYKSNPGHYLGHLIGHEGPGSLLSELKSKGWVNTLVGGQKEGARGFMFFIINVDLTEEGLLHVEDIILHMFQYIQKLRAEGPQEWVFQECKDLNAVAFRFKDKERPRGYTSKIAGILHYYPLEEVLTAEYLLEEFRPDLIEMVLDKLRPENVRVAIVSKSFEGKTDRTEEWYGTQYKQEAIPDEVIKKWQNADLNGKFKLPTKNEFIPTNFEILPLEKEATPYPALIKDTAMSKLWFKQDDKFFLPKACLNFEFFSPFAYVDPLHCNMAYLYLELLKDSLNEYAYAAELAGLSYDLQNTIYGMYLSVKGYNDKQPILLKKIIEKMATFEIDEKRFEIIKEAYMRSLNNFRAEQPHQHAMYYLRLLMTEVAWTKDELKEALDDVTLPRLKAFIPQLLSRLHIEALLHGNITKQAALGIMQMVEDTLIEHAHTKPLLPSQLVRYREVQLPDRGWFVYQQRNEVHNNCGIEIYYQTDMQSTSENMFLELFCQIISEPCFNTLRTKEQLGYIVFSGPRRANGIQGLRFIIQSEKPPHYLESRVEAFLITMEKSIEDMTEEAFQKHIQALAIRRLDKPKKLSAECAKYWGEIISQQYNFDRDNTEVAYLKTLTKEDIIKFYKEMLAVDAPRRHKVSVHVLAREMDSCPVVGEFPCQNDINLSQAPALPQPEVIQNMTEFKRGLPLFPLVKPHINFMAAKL

Large T antigen = Large T antigen (Simian virus 40, UniProt P03070); assay type: functional, Betapolyomavirus macacae;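 further: Confirmatory-stage PubChem screen for compounds that inhibit SV40 T antigen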
[2] = Counterscreen for IDE inhibitors: Luminescence-based cell-based high throughput dose response assay to identify compounds that are cytotoxic to HEK cells. [Related pubchem assays: 434962 (Primary screen (IDE inhibitors in singlicate)), 449730 (Counterscreen (Cytotoxicity in triplicate)), 435028 (Confirmation (IDE inhibitors in triplicate)) …; assay type: functional; conditions: HEK293

Sequence of Large T antigen (P03070 whole entry): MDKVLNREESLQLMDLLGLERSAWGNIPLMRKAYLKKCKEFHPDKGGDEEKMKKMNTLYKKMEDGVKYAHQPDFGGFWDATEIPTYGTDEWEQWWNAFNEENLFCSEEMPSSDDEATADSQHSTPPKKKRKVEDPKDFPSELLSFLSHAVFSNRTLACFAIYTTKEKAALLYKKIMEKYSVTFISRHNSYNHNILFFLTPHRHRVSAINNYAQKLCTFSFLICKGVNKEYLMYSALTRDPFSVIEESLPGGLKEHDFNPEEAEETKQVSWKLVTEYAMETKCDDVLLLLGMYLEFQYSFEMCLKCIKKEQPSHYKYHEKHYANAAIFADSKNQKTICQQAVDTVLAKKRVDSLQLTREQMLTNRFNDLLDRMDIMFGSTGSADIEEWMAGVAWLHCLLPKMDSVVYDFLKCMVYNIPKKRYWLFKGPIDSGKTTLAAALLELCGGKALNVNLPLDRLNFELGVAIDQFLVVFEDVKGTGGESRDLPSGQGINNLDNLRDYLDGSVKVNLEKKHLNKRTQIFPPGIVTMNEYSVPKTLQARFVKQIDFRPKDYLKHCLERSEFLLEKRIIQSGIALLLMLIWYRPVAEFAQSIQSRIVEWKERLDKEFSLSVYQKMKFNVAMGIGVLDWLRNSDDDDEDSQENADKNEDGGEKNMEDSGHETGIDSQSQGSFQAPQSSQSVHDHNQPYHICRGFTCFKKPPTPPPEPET

Compound | CC50 (Vero) | IC50 [1] | IC50 (Insulin-degrading enzyme) | IC50 (Large T antigen) | IC50 [2]
COc1ccc(Cn2nc(C)cc2OC(=O)c2c(F)ccc(C)c2F)cc1 | > 200 µM (active) | 131 µM (active) | – | – | –
COc1cc(-c2cc(=O)c3ccccc3o2)ccc1O | – | – | > 6.21 µM (active) | 9.46 µM (active) | > 55.6 µM (not active)
